The text below walks through data of article PMC8429549, “Glycosylation reduces the glycan-independent immunomodulatory effect of recombinant Orysata lectin in Drosophila S2 cells” (Scientific Reports, 2021).

This assay deals with T1, BOry (recombinant Orysata from E. coli) (Oryza sativa, UniProt Q0JMY8).
T1 construct: gene SALT; pColdII, N-terminal poly-His tag kept; E. coli BL21; non-glycosylated
T1 sequence (Q0JMY8 1-145): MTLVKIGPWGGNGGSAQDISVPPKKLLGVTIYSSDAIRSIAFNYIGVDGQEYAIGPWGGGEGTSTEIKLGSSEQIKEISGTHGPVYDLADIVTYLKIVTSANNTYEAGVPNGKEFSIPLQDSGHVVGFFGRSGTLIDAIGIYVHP
Description: competition: FITC-BOry on blot of glycosylated YOry. Type of assay: binding. The settings on record: 20 mM mannose in PBS preincubated 20 min; FITC-labelled lectin; competitive with the N-glycan of YOry.

Structures are written as SMILES.

On to `OC[C@H]1OC(O)[C@@H](O)[C@@H](O)[C@@H]1O` (stereo partly shown) [mannose], for which the “competition: FITC-BOry on blot of glycosylated YOry” value is on record as “Preincubation of the FITC-BOry with mannose, abolished the binding to the glycosylated YOry”.
